Three compounds from patent US6737383B1, “Herbicidal oxadiazolidines” (priority 1999, dated 2004) can be followed below.

For test [1], the system named is common ragweed. As to the kind of experiment: Test D common ragweed. It counts as in vivo, Ambrosia elatior.
The subject of test [2] is large crabgrass. The experiment in a line: Test D large crabgrass. It counts as in vivo, Digitaria sanguinalis. Particulars: Postemergence, 0 to 100 scale.
For test [3], the system named is Alexandergrass. As to the kind of experiment: Test D Alexandergrass. The class given is in vivo, Brachiaria plantaginea. Particulars: Postemergence, 0 to 100 scale.
Test [4] concerns Green foxtail. As to the kind of experiment: Test D green foxtail. It counts as in vivo. Particulars: Postemergence, 0 to 100 scale, 0 no injury, 100 complete control.
Test [5] has as its system Green foxtail. As to the kind of experiment: Test D green foxtail. Particulars: Rate 250 g/ha; Postemergence; 0 to 100 scale. The class given is in vivo.
The test system of test [6] is surinam grass. The experiment in a line: Test D surinam grass. Particulars: Postemergence, 0 to 100 scale. It counts as in vivo, Brachiaria decumbens.
Setting [7] is: Rate 16 g/ha; Postemergence; 0 to 100 scale, 0 no injury, 100 complete control.
Setting [8] is: Rate 32 g/ha; Postemergence; 0 to 100 scale, 0 no injury, 100 complete control.
The mark [9] stands for this setting: Rate 64 g/ha, Postemergence; 0 to 100 scale, 0 no injury, 100 complete control.
The mark [10] stands for this setting: Rate 125 g/ha, Postemergence; 0 to 100 scale, 0 no injury, 100 complete control.
The mark [11] stands for this setting: Rate 250 g/ha; Postemergence; 0 to 100 scale.
Where [12] appears, read: Rate 16 g/ha, 0 no injury, 100 complete control.
Setting [13] is: Rate 32 g/ha, 0 no injury, 100 complete control.
Where [14] appears, read: Rate 64 g/ha, 0 no injury, 100 complete control.
The mark [15] stands for this setting: Rate 125 g/ha, 0 no injury, 100 complete control.

Regarding `CC(C)N(C(=O)n1oc(=O)n(C2CC2)c1=O)c1ccccc1` [Compound 243], the “Plant response rating, C. ragweed” value in test [1] (setting [7]) is given as 0; in test [1] (setting [8]), 0; in test [1] (setting [9]), 10; in test [1] (setting [10]) it was 10; in test [1] (setting [11]), 60. For the same compound, the “Plant response rating Large crabgrass” value stood at 0 in test [2] (setting [12]); 70 in test [2] (setting [13]); 100 in test [2] (setting [14]); 100 in test [2] (setting [15]); 100 in test [2] (Rate 250 g/ha). The “Plant response rating, Alexandergrass” value in test [3] (setting [12]) is listed as 0; in test [3] (setting [13]), 0; in test [3] (setting [14]), 20; in test [3] (setting [15]), 100; in test [3] (Rate 250 g/ha), 100. Also, the “Plant response rating, Green foxtail” value came to 10 in test [4] (Rate 16 g/ha), 100 in test [4] (Rate 32 g/ha) and 100 in test [5]. Moreover, the results for the “Plant response rating, Surinam grass” value in test [6] (setting [12]), in test [6] (setting [13]) and in test [6] (Rate 250 g/ha) were 0, 20 and 100, respectively. In addition, the “Surinam grass plant response rating” value came out at 90 in test [6] (setting [14]) and 100 in test [6] (setting [15]).
On to `COCC(C)n1c(=O)on(C(=O)N(c2ccc(F)cc2F)C(C)C)c1=O` (stereo not drawn) [Compound 352], for which the “Plant response rating, C. ragweed” value in test [1] (Postemergence; Rate 16 g/ha; 0 to 100 scale, 0 no injury, 100 complete control) is on record as 0; in test [1] (setting [8]), 0; in test [1] (setting [9]), 20; in test [1] (setting [10]), 20; in test [1] (setting [11]) it was 100. Also, the “Plant response rating Large crabgrass” value was 0 in test [2] (setting [12]); 100 in test [2] (setting [13]); 100 in test [2] (setting [14]); 100 in test [2] (setting [15]); 100 in test [2] (Rate 250 g/ha). The “Plant response rating, Alexandergrass” value amounted to 0 in test [3] (setting [12]); 60 in test [3] (setting [13]); 80 in test [3] (setting [14]); 100 in test [3] (setting [15]); 100 in test [3] (Rate 250 g/ha). Further, the “Plant response rating, Green foxtail” value was found to be 0 in test [4] (Rate 16 g/ha), 100 in test [4] (Rate 32 g/ha) and 100 in test [5]. Further, the “Plant response rating, Surinam grass” value in test [6] (setting [12]) worked out at 0; in test [6] (setting [13]), 0; in test [6] (Rate 250 g/ha), 100. Moreover, the entries for the “Surinam grass plant response rating” value in test [6] (setting [14]) and in test [6] (setting [15]) were 30 and 70, respectively.
Turning to `CC(C)N(C(=O)n1oc(=O)n(C2(C)CC2)c1=O)c1ccccc1` [Compound 360], the “Plant response rating, C. ragweed” value in test [1] (setting [7]) was determined as 0; in test [1] (setting [8]), 0; in test [1] (setting [10]) it was 30; in test [1] (setting [11]), 30. Also, in test [1] (setting [9]), the “C. ragweed plant response rating” value is 30. The “Plant response rating Large crabgrass” value in test [2] (setting [12]) was 0; in test [2] (setting [13]), 80; in test [2] (setting [14]), 100; in test [2] (setting [15]) it was 100; in test [2] (Rate 250 g/ha), 100. Besides, the “Plant response rating, Alexandergrass” value in test [3] (setting [12]) is reported as 20; in test [3] (setting [13]) it was 60; in test [3] (setting [14]), 50; in test [3] (setting [15]), 100; in test [3] (Rate 250 g/ha), 100. Further, the “Plant response rating, Green foxtail” value in test [4] (Rate 16 g/ha) amounted to 0; in test [4] (Rate 32 g/ha) it was 70; in test [5] it was 100. Also, the “Plant response rating, Surinam grass” value in test [6] (setting [12]) was found to be 0; in test [6] (setting [13]) it was 0; in test [6] (Rate 250 g/ha) it was 100. Besides, the “Surinam grass plant response rating” value came out at 100 in test [6] (setting [14]) and 90 in test [6] (setting [15]).
